Measurements published in US12551368B2, “Bioerodible ocular drug delivery insert and therapeutic method” (EyePoint Pharmaceuticals, Inc., priority 2020, dated 2026).

Key:
[1] = cited from earlier work
[2] = tested on: Laser-Induced Choroidal Neovascularization (CNV); test: Laser-Induced Choroidal Neovascularization (CNV) model, fluorescein angiography (Example 7); format: in vivo, Swine (Mini-pig)
Experimental: Safety and efficacy of a vorolanib insert were evaluated in a Swine (Mini-pig) Model of Laser-Induced Choroidal Neovascularization (CNV). The primary objective of this study was to evaluate the long-term safety and inhibition of vascular permeability and neovascularization in a laser-induced model of choroidal neovascularization (CNV) using a vorolanib insert in swine.
On the day of lasering (Groups 1-4) animals were treated with an 810 nm diode laser delivered through an indirect ophthalmoscope. Approximately 6 single laser spots were placed between retinal veins. Both eyes underwent laser treatment according to the schedule in the table above.
On the day of intravitreal injections animals were anesthetized and the eyes were aseptically prepared. […] Animals were allowed to recover normally from the procedure. The pigs were given a topical drop of antibiotic ophthalmic solution 4-6 hours later, and then BID for 2 additional days with at least 6 hours between doses. Animals were dosed on either Day 0 immediately following laser CNV induction or 7 days prior to laser CNV induction according to the schedule in the table above.
Flourescein Angiography was done in both eyes in anesthetized animals at the timepoints as indicated in the experimental design table.

[3] = Intravitreal Pharmacokinetic Study of vorolanib insert (Example 5); format: in vivo, Male Dutch Belted Rabbits
Experimental: An Intravitreal Pharmacokinetic Study was performed in Male Dutch Belted Rabbits. The objective of this study was to characterize the plasma and ocular tissue pharmacokinetics of a vorolanib insert following bilateral intravitreal injection on Day 1. Animals were evaluated up to 24 months following placement of the intravitreal insert.
The low dose group (1) received 3 inserts per eye for a total dose of 630 μg per eye. The high dose group (2) animals received 6 inserts per eye given in 2 separate injections (3 inserts per injection) for a total dose of 1,260 μg per eye.
Prior to each scheduled sacrifice point, one whole blood sample was collected from a targeted 2 animals per group via puncture of a marginal ear vein. Samples were tested for levels of vorolanib and its metabolite. Two animals per group were euthanized on day 1 at 6, 12, 24 and 48 hours, on days 7 and 14, and at 1, 2, 4, 6, 8, 16 and 24 months.

[4] = 18 month intravitreal toxicity and plasma pharmacokinetics study of the insert (Example 6); format: in vivo; conditions: rabbit
Experimental: An 18 month intravitreal toxicity study for the insert was also performed in 80 Dutch Belted rabbits (40 male and 40 female). Animals were evaluated for a period of 6 and 18 months following placement of intravitreal inserts. The objective was to characterize the ocular toxicity, plasma pharmacokinetics and biodegradation of a vorolanib insert following bilateral intravitreal injection.
The tables below describe the group assignments and dose levels. For the toxicology groups, animals were sacrificed at 6 months and 18 months. For the plasma pharmacokinetic analysis, blood samples were collected at Days 1, 3, and 7 and then 1, 2, 3, 4, 5, 6, 12, 14, 16 and 18 Months
The placebo group (1) animals received two placebo inserts by injection in each eye. The low dose group (2) animals received 2 inserts in each eye. The mid dose group (3) animals received 3 inserts in each eye given in 2 separate injections. The high dose group (4) animals received 4 inserts in each eye given in 2 separate injections (2 inserts/injection). The highest dose group (5) animals received 6 inserts in each eye given in 2 separate injections (3 inserts/injection).
At each scheduled timepoint, whole blood was collected via puncture of a marginal ear vein. Samples were analyzed for clinical pathology and plasma pharmacokinetics. Animals were euthanized according to the schedules described above. […]

For `CNC(=O)c1ccccc1Sc1ccc2c(/C=C/c3ccccn3)n[nH]c2c1` [axitinib, N-methyl-2-[3-((E)-2-pyridin-2-yl-vinyl)-1H-indazol-6-ylsulfanyl]-benzamide], the “solubility in aqueous media” value ([1]; over the range pH 1.1 to pH 7.8) is given as greater than 0.2 µg/mL.

For “aflibercept: VEGF inhibitor used as comparator, 2 mg, 50 μL/eye IVT”, the “reduction in Corrected Total Lesion Fluorescence (CTLF) value” ([2]; Day 7 to Day 28, Aflibercept (2 mg), 50 μL/eye IVT) was “largest reduction in CTLF values” and the “overall efficacy in the CNV model” value ([2]; IVT, swine) was “normal amounts of efficacy in this model”.

In the case of `Cc1[nH]c(/C=C2\C(=O)Nc3ccc(F)cc32)c(C)c1C(=O)N[C@H]1CCN(C(=O)N(C)C)C1` [vorolanib, (S,Z)—N-(1-(Dimethylcarbamoyl)pyrrolidin-3-yl)-5-((5-fluoro-2-oxoindolin-3-ylidene)methyl)-2,4-dimethyl-1H-pyrrole-3-carboxamide], the “dose proportionality of maximum observed concentrations in vitreous and retina/choroid” value ([3]; 630 vs 1,260 μg per eye, rabbit) is reported as “nearly dose-proportional”, the vorolanib plasma levels ([3]; PK study, rabbit) is reported as “low pg/mL range” and the “change in plasma levels” value ([3]; after 99 days, rabbit) is reported as “No apparent change”. The “vorolanib levels in the vitreous and the retina/choroid relative to the IC50 for VEGFR” value ([3]; at the time points tested, rabbit) was “remained significantly above the IC50 for VEGFR”, the “time at which steady state was reached” value ([3]; inserts in rabbit eye) was no more than 105 days and the “burst period of drug release in vivo” value ([3]; inserts in rabbit eye, followed by steady state) was 90 days. The vorolanib plasma levels ([4]; 2 to 6 inserts per eye, bilateral intravitreal, toxicology study) was “low pg/mL range”, the adverse findings ([4]; intravitreal, up to 6 inserts per eye) was “No adverse findings were attributed to vorolanib” and the solubility in water [1] was “less than 0.1 μg/mL”.
